Key:
Type in all cases: cell-based
LXRβ = biological target: T1, LXRβ (Homo sapiens, UniProt P55055); assay: Luciferase reporter specificity assay versus LXRβ on HepG2 cells; conditions: 10 μM
T1 construct: host or cells: HepG2
T1 sequence (P55055 1-460): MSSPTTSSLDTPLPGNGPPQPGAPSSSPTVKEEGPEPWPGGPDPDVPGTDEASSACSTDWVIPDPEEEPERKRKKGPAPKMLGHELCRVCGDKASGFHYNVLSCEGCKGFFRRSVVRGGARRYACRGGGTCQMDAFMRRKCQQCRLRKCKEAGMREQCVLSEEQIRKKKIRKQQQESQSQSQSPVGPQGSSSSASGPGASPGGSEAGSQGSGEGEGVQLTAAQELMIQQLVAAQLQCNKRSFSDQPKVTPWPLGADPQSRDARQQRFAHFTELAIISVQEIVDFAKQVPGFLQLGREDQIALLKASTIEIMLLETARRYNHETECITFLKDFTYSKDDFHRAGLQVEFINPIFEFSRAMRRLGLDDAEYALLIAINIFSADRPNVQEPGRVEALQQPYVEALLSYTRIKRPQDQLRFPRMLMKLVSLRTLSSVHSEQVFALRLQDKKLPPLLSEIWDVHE
Procedure: (§1) The activity of compounds 1–14 on GPBAR1 was evaluated in a luciferase reporter assay using HEK-293T cells transfected with GPBAR1. The efficacy of tested compounds (Table 1) was measured using taurolithocholic acid (TLCA) as GPBAR1 reference compound[10],[11]. Each compound was tested at the concentration of 10 μM and transactivation activity of TLCA on a cAMP responsive element (CRE) (i.e. TGR5/GPBAR1) was considered equal to 100%. […] Thus, 9 and 10 (Table 1) turned out to be the most promising derivatives considering their low EC50 values and high activity efficacy. To further characterize the pharmacological properties of these compounds, we expanded their in vitro profile to common off-targets for bile acid receptor ligands.
(§2) Figure 3 (A) Dose response curves of compounds 9 and 10 (concentrations ranging from 1 to 50 µM) in luciferase reporter assay. (B) Real-time PCR analysis of mRNA expression of Pro-glucagon in GLUTag cells treated with compounds 9 and 10 at 10 μM, and TLCA used as a positive control (10 μM). Values are normalized to GAPDH and are expressed relative to those of not treated cells (NT) which are arbitrarily settled to 1. The relative mRNA expression is expressed as 2^(−ΔΔCt). […]
(§3) The specificity of compounds 9 and 10 versus PPARα, PPARγ, LXRα, LXRβ, FXR and PXR was determined in luciferase reporter gene assays as previously reported[29],[31].

GPBAR1 = biological target: T2, GPBAR1 (Homo sapiens, UniProt Q8TDU6); assay: Luciferase reporter (CRE) transactivation assay in HEK-293T cells transfected with GPBAR1; conditions: dose response 1 to 50 µM, HEK-293T transfected with GPBAR1
T2 construct: expressed in transfected cells; host or cells: HEK-293T
T2 sequence (Q8TDU6 1-330): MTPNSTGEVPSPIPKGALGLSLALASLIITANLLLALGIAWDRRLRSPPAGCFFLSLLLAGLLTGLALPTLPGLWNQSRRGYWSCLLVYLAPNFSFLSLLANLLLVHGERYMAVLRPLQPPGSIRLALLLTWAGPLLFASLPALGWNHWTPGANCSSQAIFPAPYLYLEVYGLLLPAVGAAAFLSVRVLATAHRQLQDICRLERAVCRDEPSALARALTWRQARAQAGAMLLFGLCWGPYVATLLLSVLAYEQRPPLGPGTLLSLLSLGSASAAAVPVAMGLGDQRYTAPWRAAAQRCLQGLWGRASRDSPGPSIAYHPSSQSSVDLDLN
Procedure: as §1
Transactivation assay on HEK-293T cells was performed to investigate GPBAR1 activation, using compound 1–14 and TLCA as positive control at 10 µM, as previously reported.
Supplementary Figure S4. HEK-293T cells were transiently transfected with GPBAR1 and a reporter gene containing a cAMP responsive element in front of the luciferase gene. Cells were stimulated with compounds A-L (10 μM). TLCA (10 μM) was used as positive control. Luciferase activity served as a measure of the rise in intracellular cAMP following activation of GPBAR1. In all panels, results are expressed as mean ± standard error. ^∗p < 0.05 versus not treated cells (NT).

FXR = biological target: T3, FXR (Homo sapiens, UniProt Q96RI1); assay: Luciferase reporter specificity assay versus FXR on HepG2 cells; conditions: 10 μM
T3 construct: host or cells: HepG2
T3 sequence (Q96RI1 1-486): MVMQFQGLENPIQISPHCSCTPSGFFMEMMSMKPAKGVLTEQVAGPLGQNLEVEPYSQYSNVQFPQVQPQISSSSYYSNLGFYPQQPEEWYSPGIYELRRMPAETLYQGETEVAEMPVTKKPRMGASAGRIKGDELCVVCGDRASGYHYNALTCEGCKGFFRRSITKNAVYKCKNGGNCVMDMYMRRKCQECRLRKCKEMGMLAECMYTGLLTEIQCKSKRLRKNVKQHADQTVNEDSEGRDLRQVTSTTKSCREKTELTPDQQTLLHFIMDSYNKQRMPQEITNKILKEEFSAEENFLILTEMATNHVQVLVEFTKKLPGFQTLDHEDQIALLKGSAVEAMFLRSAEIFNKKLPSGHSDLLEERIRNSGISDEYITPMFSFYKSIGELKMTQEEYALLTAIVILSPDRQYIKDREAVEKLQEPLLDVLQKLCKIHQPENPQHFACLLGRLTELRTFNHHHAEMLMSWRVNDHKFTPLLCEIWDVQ
Procedure: as §1, §2, §3

LXRβ transactivation (LXRβ) | EC50 (GPBAR1) | FXR transactivation (FXR) | SMILES
unable to induce | 4.6 µM | unable to induce | O=C(NC1CCCCC1)N[C@@H]1CN[C@H](c2nc(-c3ccccc3)no2)C1 [Compound 10]
unable to induce | 3.5 µM | unable to induce | O=C(Nc1ccc(Cl)cc1)N[C@@H]1CN[C@H](c2nc(-c3ccccc3)no2)C1 [Compound 9]

Source: article PMC6385358, “Discovery of ((1,2,4-oxadiazol-5-yl)pyrrolidin-3-yl)ureidyl derivatives as selective non-steroidal agonists of the G-protein coupled bile acid receptor-1” (Scientific Reports, 2019)
